Test results: patent publication US20240425490A1, “SULFAMIDE RIBONUCLEOTIDE REDUCTASE (RNR) INHIBITORS AND USES THEREOF” (Boundless Bio, Inc., priority 2021, published 2024)

Target: T1, RNR (RNR1:RNR2 1:1) (Homo sapiens, UniProt P23921)
T1 sequence (P23921 1-792): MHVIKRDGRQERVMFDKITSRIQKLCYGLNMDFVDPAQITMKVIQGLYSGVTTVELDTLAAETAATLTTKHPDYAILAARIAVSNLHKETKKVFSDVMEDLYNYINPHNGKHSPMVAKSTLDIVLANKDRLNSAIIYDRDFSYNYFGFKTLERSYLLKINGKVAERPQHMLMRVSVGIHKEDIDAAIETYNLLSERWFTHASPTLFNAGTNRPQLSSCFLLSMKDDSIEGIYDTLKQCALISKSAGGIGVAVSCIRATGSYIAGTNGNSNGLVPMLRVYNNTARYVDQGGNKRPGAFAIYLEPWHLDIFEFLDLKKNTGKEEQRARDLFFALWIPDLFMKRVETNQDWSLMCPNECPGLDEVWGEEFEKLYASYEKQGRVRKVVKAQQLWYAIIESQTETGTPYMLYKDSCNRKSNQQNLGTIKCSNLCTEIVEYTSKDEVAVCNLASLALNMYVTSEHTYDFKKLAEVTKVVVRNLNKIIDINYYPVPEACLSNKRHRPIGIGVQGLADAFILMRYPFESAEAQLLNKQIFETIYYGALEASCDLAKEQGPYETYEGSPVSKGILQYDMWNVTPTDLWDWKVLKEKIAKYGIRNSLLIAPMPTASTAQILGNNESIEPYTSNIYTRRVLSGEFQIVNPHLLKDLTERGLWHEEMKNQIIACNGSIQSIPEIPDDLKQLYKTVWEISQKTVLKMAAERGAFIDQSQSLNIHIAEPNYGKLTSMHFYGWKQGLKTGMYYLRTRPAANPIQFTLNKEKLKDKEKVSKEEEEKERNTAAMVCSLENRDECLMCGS
Assay: RNR enzyme activity, rapid-fire mass spectrometry (RFMS) assay
Format: biochemical
Details: RNR 50 nM, CDP 5 μM, ATP 1 mM, 37° C., 45 min, compounds screened up to 50 μM, read-out: RF/MS IC50
Method: A rapid-fire mass spectrometry (RFMS) assay was used to assess RNR enzyme activity using a 384 well plate and a robotic platform.
The plate layout included two validated reference compounds (Triapine (3-AP) and Hydroxyurea (HU)): • A dose response in duplicate; top concentration: 5 μM (3-AP) and 250 μM (HU), semi-log dilutions. • Spike wells in triplicate randomly spotted at four concentrations: • 250 μM, 100 μM, 30 μM and 2 μM for HU • 5 μM, 2 μM, 0.6 μM and 0.04 μM for 3-AP
First, the multidrop pipes were saturated for 30 minutes with enzymatic solution. Then 30 μL of Stop solution was distributed in column 24. Next, 15 μL of enzyme was distributed in column 1 to 24. Next, a pre-incubation step of 15 minutes at room temperature occurred, followed by distribution of 15 μL of substrate solution (column 1 to 24). Next, the plate was incubated for 45 minutes at 37° C. 30 μL of Stop solution was distributed to columns 1 to 23.
The final parameters for the enzyme reactions were: • Incubation: 37° C., 45 min • [CDP]: 5 μM; [ATP]: 1 mM; [NADPH]: No • [RNR] final: 50 nM with 1:1 (RNR1:RNR2) ratio • Final volume: 30 μL • Stop solution: 6% HCOOH containing 2 μM of 15

SMILES	IC50 [µM]
Cc1ccc(F)c([C@@H](C)[C@H](NS(=O)(=O)N2CCC[C@@](C)(O)C2)c2n[nH]c(=O)o2)c1C [Example 22, (R)-N-((1S,2R)-2-(6-fluoro-2,3-dimethylphenyl)-1-(5-oxo-4,5-dihydro-1,3,4-oxadiazol-2-yl)propyl)-3-hydroxy-3-methylpiperidine-1-sulfonamide]	10 to 100
Cc1ccc(F)c(C(C)[C@H](NS(=O)(=O)N2CCCC3CN(C(=O)OC(C)(C)C)CC32)c2n[nH]c(=O)o2)c1C (stereo partly drawn) [Example 23, tert-butyl 1-(N-((1S)-2-(6-fluoro-2,3-dimethylphenyl)-1-(5-oxo-4,5-dihydro-1,3,4-oxadiazol-2-yl)propyl)sulfamoyl)-octahydro-6H-pyrrolo[3,4-b]pyridine-6-carboxylate]	1 to 10
Cc1ccc(F)c(C(C)[C@H](NS(=O)(=O)N2CCCC(C(C)C)C2)c2n[nH]c(=O)o2)c1C (stereo partly drawn) [Example 24, N-((1S)-2-(6-fluoro-2,3-dimethylphenyl)-1-(5-oxo-4,5-dihydro-1,3,4-oxadiazol-2-yl)propyl)-3-isopropylpiperidine-1-sulfonamide]	0.1 to 1
Cc1ccc(F)c(C(C)[C@H](NS(=O)(=O)N2CCCC(N(C)C)C2)c2n[nH]c(=O)o2)c1C (stereo partly drawn) [Example 25, 3-(dimethylamino)-N-((1S)-2-(6-fluoro-2,3-dimethylphenyl)-1-(5-oxo-4,5-dihydro-1,3,4-oxadiazol-2-yl)propyl)piperidine-1-sulfonamide]	10 to 100
Cc1ccc(F)c(C(C)[C@H](NS(=O)(=O)N2CCCC(C#N)C2)c2n[nH]c(=O)o2)c1C (stereo partly drawn) [Example 26, 3-cyano-N-((1S)-2-(6-fluoro-2,3-dimethylphenyl)-1-(5-oxo-4,5-dihydro-1,3,4-oxadiazol-2-yl)propyl)piperidine-1-sulfonamide]	1 to 10
CC(=O)NC1CCN(S(=O)(=O)N[C@H](c2n[nH]c(=O)o2)C(C)c2c(F)ccc(C)c2C)CC1 (stereo partly drawn) [Example 29, N-(1-(N-((1S)-2-(6-fluoro-2,3-dimethylphenyl)-1-(5-oxo-4,5-dihydro-1,3,4-oxadiazol-2-yl)propyl)sulfamoyl)piperidin-4-yl)acetamide]	10 to 100
CC(=O)NC1CCN(S(=O)(=O)N[C@H](c2n[nH]c(=O)o2)[C@@H](C)c2c(F)ccc(C)c2C)CC1 [Example 30, N-(1-(N-((1S,2S)-2-(6-fluoro-2,3-dimethylphenyl)-1-(5-oxo-4,5-dihydro-1,3,4-oxadiazol-2-yl)propyl)sulfamoyl)piperidin-4-yl)acetamide]	1 to 10
Cc1ccc(F)c(C(C)[C@H](NS(=O)(=O)N2CCC(CN(C)C)CC2)c2n[nH]c(=O)o2)c1C (stereo partly drawn) [Example 31, 4-((dimethylamino)methyl)-N-((1S)-2-(6-fluoro-2,3-dimethylphenyl)-1-(5-oxo-4,5-dihydro-1,3,4-oxadiazol-2-yl)propyl)piperidine-1-sulfonamide]	10 to 100
Cc1ccc(F)c(C(C)[C@H](NS(=O)(=O)N2CCC(C(C)O)CC2)c2n[nH]c(=O)o2)c1C (stereo partly drawn) [Example 32, N-((1S)-2-(6-fluoro-2,3-dimethylphenyl)-1-(5-oxo-4,5-dihydro-1,3,4-oxadiazol-2-yl)propyl)-4-(1-hydroxyethyl)piperidine-1-sulfonamide]	1 to 10
Cc1ccc(F)c(C(C)[C@H](NS(=O)(=O)N2CCC(C(F)(F)F)CC2)c2n[nH]c(=O)o2)c1C (stereo partly drawn) [Example 33, N-((1S)-2-(6-fluoro-2,3-dimethylphenyl)-1-(5-oxo-4,5-dihydro-1,3,4-oxadiazol-2-yl)propyl)-4-(trifluoromethyl)piperidine-1-sulfonamide]	1 to 10
Cc1ccc(F)c(C(C)[C@H](NS(=O)(=O)N2CCC(c3ccccc3)CC2)c2n[nH]c(=O)o2)c1C (stereo partly drawn) [Example 34, N-((1S)-2-(6-fluoro-2,3-dimethylphenyl)-1-(5-oxo-4,5-dihydro-1,3,4-oxadiazol-2-yl)propyl)-4-phenylpiperidine-1-sulfonamide]	1 to 10
Cc1ccc(F)c([C@@H](C)[C@H](NS(=O)(=O)N2CCCCC2c2ccccc2)c2n[nH]c(=O)o2)c1C (stereo partly drawn) [Example 35, N-((1S,2R)-2-(6-fluoro-2,3-dimethylphenyl)-1-(5-oxo-4,5-dihydro-1,3,4-oxadiazol-2-yl)propyl)-2-phenylpiperidine-1-sulfonamide]	1 to 10
Cc1ccc(F)c([C@H](C)[C@H](NS(=O)(=O)N2CCCCC2c2ccccc2)c2n[nH]c(=O)o2)c1C (stereo partly drawn) [Example 36, N-((1S,2S)-2-(6-fluoro-2,3-dimethylphenyl)-1-(5-oxo-4,5-dihydro-1,3,4-oxadiazol-2-yl)propyl)-2-phenylpiperidine-1-sulfonamide]	10 to 100
CC(=O)N1CCN(S(=O)(=O)N[C@H](c2n[nH]c(=O)o2)C(C)c2c(F)ccc(C)c2C)CC1 (stereo partly drawn) [Example 37, 4-acetyl-N-((1S)-2-(6-fluoro-2,3-dimethylphenyl)-1-(5-oxo-4,5-dihydro-1,3,4-oxadiazol-2-yl)propyl)piperazine-1-sulfonamide]	1 to 10
Cc1ccc(F)c([C@@H](C)[C@H](NS(=O)(=O)N2CCC(C(C)C)CC2)c2n[nH]c(=O)o2)c1C [Example 38, N-((1S,2R)-2-(6-fluoro-2,3-dimethylphenyl)-1-(5-oxo-4,5-dihydro-1,3,4-oxadiazol-2-yl)propyl)-4-isopropylpiperidine-1-sulfonamide]	10 to 100
Cc1ccc(F)c([C@H](C)[C@H](NS(=O)(=O)N2CCC(C(C)C)CC2)c2n[nH]c(=O)o2)c1C [Example 39, N-((1S,2S)-2-(6-fluoro-2,3-dimethylphenyl)-1-(5-oxo-4,5-dihydro-1,3,4-oxadiazol-2-yl)propyl)-4-isopropylpiperidine-1-sulfonamide]	1 to 10
Cc1ccc(F)c([C@H](C)[C@H](NS(=O)(=O)N2CCC(CCl)CC2)c2n[nH]c(=O)o2)c1C [Example 40, 4-(chloromethyl)-N-((1S,2S)-2-(6-fluoro-2,3-dimethylphenyl)-1-(5-oxo-4,5-dihydro-1,3,4-oxadiazol-2-yl)propyl)piperidine-1-sulfonamide]	10 to 100
Cc1ccc(F)c([C@@H](C)[C@H](NS(=O)(=O)N2CCC(CCl)CC2)c2n[nH]c(=O)o2)c1C [Example 41, 4-(chloromethyl)-N-((1S,2R)-2-(6-fluoro-2,3-dimethylphenyl)-1-(5-oxo-4,5-dihydro-1,3,4-oxadiazol-2-yl)propyl)piperidine-1-sulfonamide]	0.1 to 1
Cc1ccc(F)c([C@H](C)[C@H](NS(=O)(=O)N2CC3CCCC(C3)C2)c2n[nH]c(=O)o2)c1C [Example 42, N-((1S,2S)-2-(6-fluoro-2,3-dimethylphenyl)-1-(5-oxo-4,5-dihydro-1,3,4-oxadiazol-2-yl)propyl)-3-azabicyclo[3.3.1]nonane-3-sulfonamide]	10 to 100
Cc1ccc(F)c([C@@H](C)[C@H](NS(=O)(=O)N2CC3CCCC(C3)C2)c2n[nH]c(=O)o2)c1C [Example 43, N-((1S,2R)-2-(6-fluoro-2,3-dimethylphenyl)-1-(5-oxo-4,5-dihydro-1,3,4-oxadiazol-2-yl)propyl)-3-zabicyclo[3.3.1]nonane-3-sulfonamide]	1 to 10
Cc1ccc(F)c([C@H](C)[C@H](NS(=O)(=O)N2CCC(C(F)F)CC2)c2n[nH]c(=O)o2)c1C [Example 44, 4-(difluoromethyl)-N-((1S,2S)-2-(6-fluoro-2,3-dimethylphenyl)-1-(5-oxo-4,5-dihydro-1,3,4-oxadiazol-2-yl)propyl)piperidine-1-sulfonamide]	1 to 10
